Data taken from US20220257592A1, “METHODS OF TREATING CANCER” (HOFFMANN-LA ROCHE INC., priority 2019, published 2022).
Marks after values point to notes of the source that are not given here.

Assay: Clinical trial safety, integrated analysis of ALKA, STARTRK-1, STARTRK-2, STARTRK-NG (N=504)
From the text: The following categories of frequency have been used: very common ≥1/10, common (≥1/100 to <1/10), uncommon (≥1/1,000 to <1/100), rare (≥1/10,000 to <1/1000), very rare (<1/10,000).

[1] = patients less than 65 years old

With `CN1CCN(c2ccc(C(=O)Nc3n[nH]c4ccc(Cc5cc(F)cc(F)c5)cc34)c(NC3CCOCC3)c2)CC1` [Entrectinib, N-[5-(3,5-difluorobenzyl)-1H-indazol-3-yl]-4-(4-methyl-piperazin-1-yl)-2-(tetrahydro-pyran-4-ylamino)-benzamide] the “Myalgia, Frequency Category (All Grades)” value (N = 504) was “very common (very common ≥1/10)”, the “Myalgia, Grade ≥3” value (N = 504) was 0.6% and the “Nausea, All Grades” value (N = 504) was 32.1%. The “Nausea, Frequency Category (All Grades)” value (N = 504) was “very common (very common ≥1/10)”, the “Nausea, Grade ≥3” value (N = 504) was 0.8% and the “Neutropenia, All Grades” value (N = 504) was 11.3%. The “Neutropenia, Frequency Category (All Grades)” value (N = 504) was “very common (very common ≥1/10)”, the “Neutropenia, Grade ≥3” value (N = 504) was 4.4% and the “Pain, All Grades” value (N = 504) was 24.4%. For the same compound, the “Pain, Frequency Category (All Grades)” value (N = 504) was “very common (very common ≥1/10)”, the “Pain, Grade ≥3” value (N = 504) was 1.6% and the “Peripheral Sensory Neuropathy, Frequency Category (All Grades)” value (N = 504) was “very common (very common ≥1/10)”. For the same compound, the “Peripheral sensory neuropathy, All Grades” value (N = 504) was 15.7%, the “Peripheral sensory neuropathy, Grade ≥3” value (N = 504) was 1.0% and the “Pyrexia, All Grades” value (N = 504) was 20.0%. The “Pyrexia, Frequency Category (All Grades)” value (N = 504) was “very common (very common ≥1/10)”, the “Pyrexia, Grade ≥3” value (N = 504) was 0.8% and the “Rash, All Grades” value (N = 504) was 11.5%. The “Rash, Frequency Category (All Grades)” value (N = 504) was “very common (very common ≥1/10)”, the “Rash, Grade ≥3” value (N = 504) was 1.4% and the “Sleep disturbances, All Grades” value (N = 504) was 13.5%. For the same compound, the “Sleep disturbances, Frequency Category (All Grades)” value (N = 504) was “very common (very common ≥1/10)”, the “Sleep disturbances, Grade ≥3” value (N = 504) was 0.4% and the “Syncope, All Grades” value (N = 504) was 4.6%. The “Syncope, Frequency Category (All Grades)” value (N = 504) was “common (common (≥1/100 to <1/10))”, the “Syncope, Grade ≥3” value (N = 504) was 3.0% and the “Tumor lysis syndrome, All Grades” value (N = 504) was 0.2%. For the same compound, the “Tumor lysis syndrome, Frequency Category (All Grades)” value (N = 504) was “uncommon (uncommon (≥1/1,000 to <1/100))”, the “Urinary tract infection, All Grades” value (N = 504) was 12.7% and the “Urinary tract infection, Frequency Category (All Grades)” value (N = 504) was “very common (very common ≥1/10)”. For the same compound, the “Urinary tract infection, Grade ≥3” value (N = 504) was 2.6%, the “Vision Blurred, Frequency Category (All Grades)” value (N = 504) was “very common (very common ≥1/10)” and the “Vision Blurred, Grade ≥3” value (N = 504) was 0.4%. For the same compound, the “Vomiting, All Grades” value (N = 504) was 23.2%, the “Vomiting, Frequency Category (All Grades)” value (N = 504) was “very common (very common ≥1/10)” and the “Vomiting, Grade ≥3” value (N = 504) was 1.2%. The “Weight increased, All Grades” value (N = 504) was 26.4%, the “Weight increased, Frequency Category (All Grades)” value (N = 504) was “very common (very common ≥1/10)” and the “Weight increased, Grade ≥3” value (N = 504) was 7.3%. The “Ataxia, All Grades” value (N = 504, ataxia, balance disorder, gait disturbances) was 15.7%, the “Vision Blurred, All Grades” value (N = 504, diplopia, vision blurred, visual impairment) was 11.9% and the “Entrectinib interrupted due to fractures” value (adult patients) was 36.0%. The “Grade 3 or 4 bone fractures” value (adult patients) was 1.9%, the “Grade 3 or 4 headache” value (adult patients) was 0.6% and the “Grade 3 or 4 neutropenia” value (adult patients) was 3.4%. The “Grade 3 or 4 weight increased” value (adult patients) was 6.9%, the Fractures (adult patients (N=475)) was 5.3% and the “Median time to fracture” value (adults, range: 0.26 months to 18.5 months) was 3.42 months. For the same compound, the Ataxia (elderly (65 years or older)) was 23.8%, the Blood creatinine increased (elderly (65 years or older)) was 31.5% and the Dizziness (elderly (65 years or older)) was 48.5%. The Hypotension (elderly (65 years or older)) was 21.5%, the “Bilateral femoral neck fractures” value (human, in vivo) was 2 pediatric patients and the “Cognitive disorders, Grade 3 events” value (human, in vivo) was 4.4%. For the same compound, the “Cognitive symptoms: amnesia” value (human, in vivo) was 2.8%, the “Cognitive symptoms: cognitive disorders” value (human, in vivo) was 6.3% and the “Cognitive symptoms: confusional state” value (human, in vivo) was 7.3%. For the same compound, the “Cognitive symptoms: delirium” value (human, in vivo) was 0.8%, the “Cognitive symptoms: disturbance in attention” value (human, in vivo) was 3.8% and the “Cognitive symptoms: hallucination” value (human, in vivo) was 1.0%. For the same compound, the “Cognitive symptoms: hallucination visual” value (human, in vivo) was 0.4%, the “Cognitive symptoms: memory impairment” value (human, in vivo) was 4.2% and the “Cognitive symptoms: mental disorder” value (human, in vivo) was 0.2%. The “Cognitive symptoms: mental status changes” value (human, in vivo) was 1.2%, the “Discontinuation due to fractures” value (human, in vivo) was “No patients discontinued” and the “Eye disorders: diplopia” value (human, in vivo) was 2.6%. The “Eye disorders: vision blurred” value (human, in vivo) was 8.5%, the “Eye disorders: visual impairment” value (human, in vivo) was 1.6% and the “Overall safety profile in elderly patients vs patients younger than 65 years” value (human, in vivo) was “similar”. For the same compound, the “Patients recovered from ataxia” value (human, in vivo) was 67.1%, the “Patients recovered from peripheral neuropathy” value (human, in vivo) was 55.7% and the “Patients recovered from the eye disorder events” value (human, in vivo) was 61.7%. For the same compound, the “Dyspnea, Grade ≥3” value (human, in vivo, 5.5 months) was 5.8* %, the “Lung infection, Grade ≥3” value (human, in vivo, 5.5 months) was 6.0* % and the “Tumor lysis syndrome, Grade ≥3” value (human, in vivo, 5.5 months) was 0.2* %. For the same compound, the Ataxia [1] was 12.8%, the Blood creatinine increased [1] was 23.3% and the Dizziness [1] was 36.6%. The Hypotension [1] was 14.7%, the “QTcF interval of ≥500 ms” value (patients with at least one post-baseline ECG assessment, 12 patients) was 2.8% and the “QTcF interval prolongation of >60 ms after starting entrectinib” value (patients with at least one post-baseline ECG assessment, 17 patients) was 4.0%. For the same compound, the Cognitive disorder events (patients with brain metastases at baseline) was 29.7%, the Cognitive disorder events (patients without brain metastases) was 23.1% and the “Entrectinib interrupted due to fractures” value (pediatric patients) was 33.3%. For the same compound, the “Grade 3 or 4 bone fractures” value (pediatric patients) was 12.5%, the “Grade 3 or 4 headache” value (pediatric patients) was 6.3% and the “Grade 3 or 4 neutropenia” value (pediatric patients) was 28.1%. For the same compound, the “Grade 3 or 4 weight increased” value (pediatric patients) was 21.9%, the Fractures (pediatric patients (N=29)) was 20.7% and the “Median time to fracture” value (pediatric patients, range: 1.77 months to 7.39 months) was 3.38 months. For the same compound, the “Disturbance in attention of Grade 1 severity” value (pediatric population (1/29)) was 3.4%, the “Eye disorders, median duration” value (range 0.03 months to 14.49 months) was 1.02 months and the “Peripheral sensory neuropathy, median time to onset” value (range 0.03 months to 20.93 months) was 0.49 months. For the same compound, the “Ataxia, median duration” value (range: 0.03 months to 11.99 months) was 0.66 months, the “Eye disorders, median time to onset” value (range: 0.03 months to 21.59 months) was 1.87 months and the “Ataxia, median time to onset” value (range: 0.03 months to 28.19 months) was 0.36 months. For the same compound, the “Peripheral sensory neuropathy, median duration” value (range: 0.07 months to 6.01 months) was 0.76 months.
